ChEMBL document CHEMBL5579800, “Further structural optimization and SAR study of sungsanpin derivatives as cell-invasion inhibitors” (Bioorg Med Chem Lett, 2024)
The source made the active and inactive calls. The calls are words filed in the database; no cut-off is given here. Where a SMILES comes first, the peptide text is derived from it.

Key:
A549 [1] = assay: Inhibition of cell invasion in human A549 cells at 25 to 100 uM; assay type: functional, cell-based; conditions: dose 25-100 µM
A549 [2] = assay: Cytotoxicity against human A549 cells assessed as cell viability upto 100 uM by CCK8 assay; assay type: toxicity, cell-based; conditions: a549, 100 µM
A549 [3] = assay: Upregulation of TIMP-2 mRNA level in human A549 cells at 100 uM by qPCR analysis; assay type: functional, cell-based
A549 [4] = assay: Downregulation of MMP-2 level in human A549 cells at 100 uM by Western blot analysis; assay type: functional, cell-based
A549 [5] = assay: Upregulation of TIMP-1 level in human A549 cells at 100 uM by Western blot analysis; assay type: functional, cell-based
A549 [6] = assay: Upregulation of TIMP-2 level in human A549 cells at 100 uM by Western blot analysis; assay type: functional, cell-based
A549 [7] = assay: Upregulation of TIMP-1 mRNA level in human A549 cells at 100 uM by qPCR analysis; assay type: functional, cell-based
A549 [8] = assay: Inhibition of cell invasion in human A549 cells; assay type: functional, cell-based; conditions: dose 25-100 µM
A549 [9] = assay: Inhibition of cell invasion in human A549 cells at 100 uM; assay type: functional, cell-based
A549 [10] = assay: Inhibition of cell invasion in human A549 cells by microscopy; assay type: functional, cell-based; conditions: dose 25-100 µM
[11] = Stability in human serum assessed as half life by HPLC analysis; assay type: ADME, cell-free
[12] = Stability in human serum assessed as compound remaining measured after 24 hrs by HPLC analysis; assay type: ADME, cell-free; conditions: read-out: Stability
A549 [13] = assay: Downregulation of MMP-9 level in human A549 cells at 100 uM by Western blot analysis; assay type: functional, cell-based
A549 [14] = assay: Inhibition of cell invasion in human A549 cells at 100 uM by microscopy; assay type: functional, cell-based

H-DSFVLSWL-OH
inhibition (A549 [1]): Active
Activity (A549 [2]): Non-Toxic
Activity (A549 [3]): inactive
Activity (A549 [4]): Active
Activity (A549 [5]): Active
Activity (A549 [6]): inactive
Activity (A549 [7]): Active

H-DSFKLSWL-OH
Activity (A549 [2]): Non-Toxic
Activity (A549 [3]): inactive
Activity (A549 [4]): Active
Activity (A549 [5]): Active
Activity (A549 [6]): inactive
Activity (A549 [7]): Active
inhibition (A549 [8]): Dose-Dependent Effect

H-DSFGLSWL-OH
Activity (A549 [2]): Non-Toxic

Ac-DSFGLSWL-NH2
Activity (A549 [2]): Non-Toxic
inhibition (A549 [9]): inactive

CC(C)C[C@@H]1NC(=O)CNC(=O)[C@H](Cc2ccccc2)NC(=O)[C@H](CO)NC(=O)[C@H](CC(=O)O)NC(=O)[C@H](CC(C)C)NC(=O)[C@H](Cc2c[nH]c3ccccc23)NC(=O)[C@H](CO)NC1=O (cyclo(DSFGLSWL))
Activity (A549 [2]): Non-Toxic

H-DSFLLSWL-OH
inhibition (A549 [1]): inactive
Activity (A549 [2]): Non-Toxic

H-DSAGLSWL-OH
Activity (A549 [2]): Non-Toxic

CC(C)C[C@@H]1NC(=O)[C@H](C)NC(=O)[C@H](Cc2ccccc2)NC(=O)[C@H](CO)NC(=O)[C@H](CC(=O)O)NC(=O)[C@H](CC(C)C)NC(=O)[C@H](Cc2c[nH]c3ccccc23)NC(=O)[C@H](CO)NC1=O (cyclo(ALSWLDSF))
Activity (A549 [2]): Non-Toxic
Activity (A549 [3]): Active
inhibition (A549 [10]): Dose-Dependent Effect
Activity (A549 [5]): Active
Activity (A549 [6]): inactive
Activity (A549 [7]): Active
half-life [11]: > 24 h
inhibition (A549 [8]): Dose-Dependent Effect
remaining at 24 h [12]: > 80%

CC(C)C[C@@H]1NC(=O)[C@H](CCCCN)NC(=O)[C@H](Cc2ccccc2)NC(=O)[C@H](CO)NC(=O)[C@H](CC(=O)O)NC(=O)[C@H](CC(C)C)NC(=O)[C@H](Cc2c[nH]c3ccccc23)NC(=O)[C@H](CO)NC1=O (cyclo(DSFKLSWL))
Activity (A549 [2]): Non-Toxic

H-DSFGLSWA-OH
Activity (A549 [2]): Non-Toxic
inhibition (A549 [9]): inactive

H-DSFALSWL-OH
Activity (A549 [2]): Non-Toxic
Activity (A549 [13]): Active
Activity (A549 [3]): Active
inhibition (A549 [14]): Active
Activity (A549 [5]): Active
Activity (A549 [6]): inactive
Activity (A549 [7]): Active
inhibition (A549 [8]): Dose-Dependent Effect
remaining at 24 h [12]: ~23%
inhibition (A549 [9]): Active

H-DAFGLSWL-OH
Activity (A549 [2]): Non-Toxic
inhibition (A549 [9]): inactive

H-DSFGASWL-OH
Activity (A549 [2]): Non-Toxic
inhibition (A549 [9]): inactive

H-DSFRLSWL-OH
Activity (A549 [2]): Non-Toxic

H-DSFDLSWL-OH
Activity (A549 [2]): Non-Toxic

H-DSFGLSAL-OH
Activity (A549 [2]): Non-Toxic
inhibition (A549 [9]): inactive

H-ASFGLSWL-OH
Activity (A549 [2]): Non-Toxic
inhibition (A549 [9]): inactive

H-DSFGLAWL-OH
Activity (A549 [2]): Non-Toxic
